pIC50, pKi: −log10 of the molar value.

The target of one assay is mSortilin (Mus musculus (Mouse), UniProt Q6PHU5). The assay is described as follows: mSortilin affinity assay (displacement of 3H-neurotensin, SPA). It is filed as binding.
Assay [1] concerns the target human sortilin (S-18 cells) (Homo sapiens (Human), UniProt Q99523). The assay is described as follows: Endogenous PGRN endocytosis assay (PGRN ELISA of media). The conditions noted are these: for PGRN levels in cell culture media (FIG. 1): PGRN allowed to accumulate 24 hrs, then compounds for further 24 hrs. The format is cell-based. (An ELISA detects its analyte on a solid surface through an enzyme-linked reagent.)

The target of assay [2] is human sortilin (HEK 293 / S-18 cells) (Homo sapiens (Human), UniProt Q99523). The assay is described as follows: Cellomics progranulin assay (PGRN binding/endocytosis, staining intensity). It is filed as cell-based. Particulars: compounds 30 min, then PGRN 60 min.
Description: Cellomics Progranulin Assay
Transfected HEK 293 cells (with control or sortilin expression plasmids) or stable HEK293 cells expressing human sortilin (S-18) were used in this assay. Cells are trypsinized and plated in 96 well plates. In the case of transiently transfected cells, they were plated 24 hrs after transfection in 96 well plates. Next day, media was changed completely and test compounds added to cells for 30 min. followed by PGRN for 60 min. At the end of the study (after 1.5 hrs), the cells were fixed and stained for sortilin and progranulin. All stained plates were analyzed by Cellomics Array Scan (Thermo Fischer) and average staining intensity for PGRN and sortilin are calculated per cell in each well.
The target in another assay is hSortilin (Homo sapiens (Human), UniProt Q99523). Briefly: hSortilin affinity assay (displacement of 3H-neurotensin, SPA). The format is binding. The conditions noted are these: for pIC50: [3H]-Neurotensin 5 nM, 150 nM 6his-Sortilin, read-out: hSortilin NTS Binding IC50; for pKi: from IC50 by Cheng-Prusoff, Kd neurotensin 100 nM. In general terms: Loss of bound radioactivity is the signal in a displacement assay; it reports binding, not function.
Sequence of hSortilin (Q99523 34-755): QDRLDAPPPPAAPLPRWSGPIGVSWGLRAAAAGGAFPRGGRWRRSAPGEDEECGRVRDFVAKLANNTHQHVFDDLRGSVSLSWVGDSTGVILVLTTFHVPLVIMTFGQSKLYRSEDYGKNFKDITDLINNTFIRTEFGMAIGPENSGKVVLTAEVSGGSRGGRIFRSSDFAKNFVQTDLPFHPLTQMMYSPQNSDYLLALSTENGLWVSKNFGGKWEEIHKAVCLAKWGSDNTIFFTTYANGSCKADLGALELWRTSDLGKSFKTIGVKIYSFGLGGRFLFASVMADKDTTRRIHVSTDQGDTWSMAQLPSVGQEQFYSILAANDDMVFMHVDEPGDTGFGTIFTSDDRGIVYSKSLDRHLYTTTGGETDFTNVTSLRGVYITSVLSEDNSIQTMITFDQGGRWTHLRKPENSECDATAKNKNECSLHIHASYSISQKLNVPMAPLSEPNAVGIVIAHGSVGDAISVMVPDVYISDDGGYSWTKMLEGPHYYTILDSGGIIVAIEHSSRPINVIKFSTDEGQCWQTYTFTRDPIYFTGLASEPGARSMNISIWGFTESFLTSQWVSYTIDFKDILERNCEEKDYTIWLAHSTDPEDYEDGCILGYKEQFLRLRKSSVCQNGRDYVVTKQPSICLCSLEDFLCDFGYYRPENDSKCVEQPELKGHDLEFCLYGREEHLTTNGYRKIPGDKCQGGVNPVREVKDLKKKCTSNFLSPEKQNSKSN

Sequence of human sortilin (S-18 cells) (Q99523 78-831): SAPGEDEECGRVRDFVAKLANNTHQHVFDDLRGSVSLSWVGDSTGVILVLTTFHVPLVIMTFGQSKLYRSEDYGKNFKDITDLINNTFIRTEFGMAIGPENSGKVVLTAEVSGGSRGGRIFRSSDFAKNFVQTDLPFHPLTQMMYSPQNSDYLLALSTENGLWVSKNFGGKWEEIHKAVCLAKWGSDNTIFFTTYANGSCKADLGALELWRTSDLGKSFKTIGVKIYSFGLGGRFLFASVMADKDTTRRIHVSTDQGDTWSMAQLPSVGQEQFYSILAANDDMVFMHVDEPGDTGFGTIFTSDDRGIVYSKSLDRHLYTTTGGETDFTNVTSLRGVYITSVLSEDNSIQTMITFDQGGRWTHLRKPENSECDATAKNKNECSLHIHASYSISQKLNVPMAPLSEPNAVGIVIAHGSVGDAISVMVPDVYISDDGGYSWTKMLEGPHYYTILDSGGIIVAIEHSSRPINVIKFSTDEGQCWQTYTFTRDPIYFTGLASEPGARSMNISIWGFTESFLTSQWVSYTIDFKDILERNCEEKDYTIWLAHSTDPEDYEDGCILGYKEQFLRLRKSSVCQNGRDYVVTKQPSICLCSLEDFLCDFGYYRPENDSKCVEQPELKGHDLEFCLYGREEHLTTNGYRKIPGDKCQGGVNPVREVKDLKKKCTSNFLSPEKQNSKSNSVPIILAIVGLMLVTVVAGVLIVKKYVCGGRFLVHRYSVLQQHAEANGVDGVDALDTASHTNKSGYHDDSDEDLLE
Sequence of human sortilin (HEK 293 / S-18 cells) (Q99523 78-831): as above
Sequence of mSortilin (Q6PHU5 74-825): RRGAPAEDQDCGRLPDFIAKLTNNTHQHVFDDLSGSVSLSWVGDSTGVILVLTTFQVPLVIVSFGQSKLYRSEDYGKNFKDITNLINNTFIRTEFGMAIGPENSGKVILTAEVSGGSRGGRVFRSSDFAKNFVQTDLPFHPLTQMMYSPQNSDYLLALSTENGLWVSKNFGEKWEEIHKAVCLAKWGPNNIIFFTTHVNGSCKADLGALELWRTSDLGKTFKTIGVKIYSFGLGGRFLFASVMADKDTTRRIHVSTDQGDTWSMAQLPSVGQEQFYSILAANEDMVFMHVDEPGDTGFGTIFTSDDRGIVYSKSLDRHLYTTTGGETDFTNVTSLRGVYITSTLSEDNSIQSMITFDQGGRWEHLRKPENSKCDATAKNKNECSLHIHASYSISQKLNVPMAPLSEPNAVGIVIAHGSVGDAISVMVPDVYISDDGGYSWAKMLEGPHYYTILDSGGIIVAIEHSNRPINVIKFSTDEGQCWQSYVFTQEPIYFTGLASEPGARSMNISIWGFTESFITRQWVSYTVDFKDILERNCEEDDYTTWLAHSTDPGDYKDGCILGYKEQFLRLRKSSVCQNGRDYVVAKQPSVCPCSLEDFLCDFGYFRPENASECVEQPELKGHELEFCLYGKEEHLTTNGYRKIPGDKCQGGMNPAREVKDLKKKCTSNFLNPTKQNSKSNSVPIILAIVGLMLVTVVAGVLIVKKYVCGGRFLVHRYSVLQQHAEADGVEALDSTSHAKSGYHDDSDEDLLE
Description for mSortilin: Mouse his-Sortilin was purchased from R&D Systems.
The Sortilin assay was performed in total volume of 40 ul in 50 mM HEPES pH 7.4 assay buffer containing 100 mM NaCl, 2.0 mM CaCl2, 0.1% BSA and 0.1% Tween-20. Varying concentration of compounds where pre-incubated for 30 min at RT with 50 nM of 6his-Sortilin. […] Ni chelate imaging beads (Perkin elmer) was added and the plate was slowly shacked in the dark for 60 min. The imaging beads were allowed minimum 6 hours settling time before the plate was read on a ViewLux with 360 sec exposure time. Dose-response evaluation of compounds was performed with 10 concentrations of drugs (covering 3 decades). IC50 values were calculated by nonlinear regression using the sigmoid concentration-response (variable slope) using Xlfit 4 (IDBS, UK). The results were given as Ki values (nM) derived from computer fitted IC50 values converted to Ki values using the Cheng-Prusoff equation (Ki=IC50/(1+(L/Kd))).

The pIC50 is the negative decadic logarithm of the IC50, by convention in mol/L. For orientation: pKi means the Ki on a negative log10 scale, so that one unit is a factor of ten. With `Cc1cccc(NC(=O)c2ccc(C(F)(F)F)cc2C(=O)O)n1` [Example 1, N-(6-Methyl-pyridin-2-yl)-5-trifluoromethyl-phthalamic acid], on mSortilin ([3H]-Neurotensin 5 nM, 50 nM 6his-Sortilin, read-out: mSortilin NTS Binding IC50), the pIC50 was 6.66. The compound also had a pKi on mSortilin (from IC50 by Cheng-Prusoff) of 6.68. The “increase in PGRN in cell culture media as compared to control wells” value in assay [1] (10 uM, media collected on day 3) was 85-100%. Further, in assay [1], the “PGRN levels in cell culture media (FIG. 1)” value was “increase in PGRN levels”. Moreover, in assay [2], the “PGRN fluorescence intensity / binding or endocytosis of PGRN to sortilin expressing cells (FIG. 2)” value is reported as “blocks binding or endocytosis of PGRN”.

For `Cc1cccc(NC(=O)c2cc(C(F)(F)F)c(C(F)(F)F)cc2C(=O)O)n1` [Example 47, 2-((6-methylpyridin-2-yl)carbamoyl)-4,5-bis(trifluoromethyl)benzoic acid], at hSortilin, the pIC50 is 5.92 and the pKi is 5.94.

Regarding `O=C(O)c1cc(C(F)(F)F)c(C(F)(F)F)cc1C(=O)Nc1ccc2c(n1)CCCC2` [Example 48, 2-((5,6,7,8-tetrahydroquinolin-2-yl)carbamoyl)-4,5-bis(trifluoromethyl)benzoic acid], on hSortilin, the pIC50 was 6.12 and the pKi was 6.14.

Take `Cc1ccc(NC(=O)c2cc(C(F)(F)F)c(C(F)(F)F)cc2C(=O)O)nc1C` [Example 49, 2-((5,6-dimethylpyridin-2-yl)carbamoyl)-4,5-bis(trifluoromethyl)benzoic acid]: on hSortilin, the pIC50 was 6.12 and the pKi is 6.13.

With `Cc1nccc(NC(=O)c2cc(C(F)(F)F)c(C(F)(F)F)cc2C(=O)O)n1` [Example 50, 2-((2-methylpyrimidin-4-yl)carbamoyl)-4,5-bis(trifluoromethyl)benzoic acid], on hSortilin, the pIC50 is 6.21 and the pKi was 6.22.

As to `Cc1cc(NC(=O)c2ccc(C(F)(F)F)cc2C(=O)O)cc(C)n1` [Example 51, 2-((2,6-dimethylpyridin-4-yl)carbamoyl)-5-(trifluoromethyl)benzoic acid], at hSortilin, the negative logarithm of the IC50 (pIC50) is 6.19 and the pKi is 6.21.

As to “scrambled neurotensin: scrambled neurotensin, sequence LIYPRNEYELRKP (SEQ ID NO:1); negative control (Scrambled Human Neurotensin) [reference compound]”, the “PGRN levels in cell culture media (FIG. 1)” value in assay [1] is on record as “did not have any effect”. Also, the “PGRN fluorescence intensity / binding or endocytosis of PGRN to sortilin expressing cells (FIG. 2)” value in assay [2] is recorded as “significantly increased”.
